Measurements published in paper doi:10.1101/2025.06.19.660642, “Discovery of orally bioavailable Zika and West Nile Virus antiviral compounds targeting the NS2B-NS3 protease” (bioRxiv, 2025).
Where two headings read alike, the source gives them in different places.

Molecular target: T1, ZIKV NS2B-NS3 protease (Zika virus, UniProt A0A024B7W1)
T1 construct: directed at the co-expressed ZIKV NS2B-NS3 protease
Assay: ZIKV NS2B-NS3 protease biochemical FRET assay

[1] = ZIKV NS2B-NS3 Ki (uM), library 1, supplement
[2] = library 1, supplement, read-out: ZIKV NS2B-NS3 Ki

T1 sequence (A0A024B7W1 1503-1680): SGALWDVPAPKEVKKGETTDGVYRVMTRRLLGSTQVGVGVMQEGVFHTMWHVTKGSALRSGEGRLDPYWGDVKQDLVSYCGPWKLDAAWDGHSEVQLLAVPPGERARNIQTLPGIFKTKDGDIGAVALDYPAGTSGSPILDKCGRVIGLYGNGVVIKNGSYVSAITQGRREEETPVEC
T1 sequence (A0A024B7W1 1425-1464): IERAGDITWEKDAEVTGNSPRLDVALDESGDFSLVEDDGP

NCCCc1ccc(F)c(NC(=O)c2cc(Cl)cc(NC(=O)OCc3ccccc3)c2)c1 [ASAP-0021296, NCCCc1ccc(F)c(NC(=O)c2cc(Cl)cc(NC(=O)OCc3ccccc3)c2)c1] was tested, and the Ki [1] was 5.63 µM.
Work on C=CC[C@@H](Nc1ccc2c(c1)CNC2)c1cc(Cl)cc2[nH]ncc12 [ASAP-0029049] yielded a Ki (ZIKV NS2B-NS3 Ki) of 7.1 µM.
In the case of CC(C)(CO)NC(=O)c1cccc(Cl)c1 [Z68299550], the “inhibition in biochemical assay” value (@ 100 μM) is reported as “n.i”.
O=C(Nc1cc(Cl)cc(C(=O)Nc2ncc3n2CCNC3)c1)OCc1ccccc1 [ASAP-0020975, O=C(Nc1cc(Cl)cc(C(=O)Nc2ncc3n2CCNC3)c1)OCc1ccccc1] showed a Ki [1] of over 89.3 µM.
Work on NCC12CC(NC(=O)c3cc(Cl)cc(NC(=O)OCc4ccccc4)c3)(CCO1)C2 [ASAP-0021607, NCC12CC(NC(=O)c3cc(Cl)cc(NC(=O)OCc4ccccc4)c3)(CCO1)C2] yielded a Ki [1] of over 89.3 µM.
CNCc1cccc(NC(=O)c2cc(Cl)cc(NC(=O)OCc3ccccc3)c2)c1 [ASAP-0021616, CNCc1cccc(NC(=O)c2cc(Cl)cc(NC(=O)OCc3ccccc3)c2)c1] was tested, and the Ki [1] was 17.6 µM.
In the case of NC1CCN(C(=O)c2cc(Cl)cc(NC(=O)OCc3ccccc3)c2)CC1 [ASAP-0017695, NC1CCN(C(=O)c2cc(Cl)cc(NC(=O)OCc3ccccc3)c2)CC1], the Ki [1] is reported as over 89.3 µM.
Compound O=C(Nc1cc(Cl)cc(C(=O)Nc2cc3n(n2)CCNC3)c1)OCc1ccccc1 [ASAP-0020976, O=C(Nc1cc(Cl)cc(C(=O)Nc2cc3n(n2)CCNC3)c1)OCc1ccccc1] has a Ki [1] of over 89.3 µM.
For O=C(Nc1cc(Cl)cc(C(=O)NC[C@@H]2CCNC3(CC3)C2)c1)OCc1ccccc1 [ASAP-0021400, O=C(Nc1cc(Cl)cc(C(=O)NC[C@@H]2CCNC3(CC3)C2)c1)OCc1ccccc1 ¦&1:13¦], the “ZIKV NS2B-NS3 pKi” value (library 1, supplement) was under 4.05 and the Ki [2] was over 89.3 µM.
In the case of “O=C(Nc1cc(Cl)cc(C(=O)Nc2ccc3c(c2)CNC3)c1)OCc1ccccc1 [ASAP-0020915]”, the “Ligand efficiency (LE)” value (Ligand efficiency = pKi / heavy atom count) is reported as 0.316, the “ZIKV NS2B-NS3 pKi” value (library 1, supplement) is reported as 6.77 and the Ki [2] is reported as 0.164 µM.
For CN(C)Cc1ccc(C(=O)Nc2cc(Cl)cc(C(=O)NC(C)(C)CO)c2)[nH]1 [ASAP-0015373], the inhibition at 100 µM (read-out: inhibition in biochemical assay) was 30%.
Cc1c(CN)cccc1NC(=O)c1cc(Cl)cc(NC(=O)OCc2ccccc2)c1 [ASAP-0021118, Cc1c(CN)cccc1NC(=O)c1cc(Cl)cc(NC(=O)OCc2ccccc2)c1] gave a Ki [1] of 40.1 µM.
NC1(c2cccc(NC(=O)c3cc(Cl)cc(NC(=O)OCc4ccccc4)c3)c2)CCC1 [ASAP-0017671, NC1(c2cccc(NC(=O)c3cc(Cl)cc(NC(=O)OCc4ccccc4)c3)c2)CCC1] showed a Ki [1] of over 89.3 µM.
Compound O=C(Nc1cc(Cl)cc(C(=O)Nc2cccc(C3CCNCC3)c2)c1)OCc1ccccc1 [ASAP-0017708, O=C(Nc1cc(Cl)cc(C(=O)Nc2cccc(C3CCNCC3)c2)c1)OCc1ccccc1] has a Ki [1] of 11.2 µM.
CN(C)Cc1csc(NC(=O)c2cc(Cl)cc(NC(=O)OCc3ccccc3)c2)n1 [ASAP-0021243, CN(C)Cc1csc(NC(=O)c2cc(Cl)cc(NC(=O)OCc3ccccc3)c2)n1] showed a Ki [1] of over 89.3 µM.
Cn1nc2c(c1NC(=O)c1cc(Cl)cc(NC(=O)OCc3ccccc3)c1)CNCC2 [ASAP-0021291, Cn1nc2c(c1NC(=O)c1cc(Cl)cc(NC(=O)OCc3ccccc3)c1)CNCC2] showed a Ki [1] of 19.7 µM.
NCCCc1cccc(NC(=O)c2cc(Cl)cc(NC(=O)OCc3ccccc3)c2)n1 [ASAP-0021169, NCCCc1cccc(NC(=O)c2cc(Cl)cc(NC(=O)OCc3ccccc3)c2)n1] was tested, and the Ki (ZIKV NS2B-NS3 pKi, library 1, supplement) was 17 µM.
Compound O=C(Nc1cc(Cl)cc(C(=O)Nc2cccc(CC3CCNCC3)c2)c1)OCc1ccccc1 [ASAP-0017638, O=C(Nc1cc(Cl)cc(C(=O)Nc2cccc(CC3CCNCC3)c2)c1)OCc1ccccc1] has a Ki [1] of over 89.3 µM.
CN(C(=O)c1cc(Cl)cc(NC(=O)OCc2ccccc2)c1)c1ccc(CN)cc1 [ASAP-0017677, CN(C(=O)c1cc(Cl)cc(NC(=O)OCc2ccccc2)c1)c1ccc(CN)cc1] gave a Ki [1] of over 89.3 µM.
For O=C(Nc1cc(Cl)cc(C(=O)NCCC2COCCN2)c1)OCc1ccccc1 (stereo not drawn) [ASAP-0022490, O=C(NC1=CC(Cl)=CC(C(=O)NCC[C@H]2COCCN2)=C1)OCC1=CC=CC=C1 ¦&1:14¦], the Ki [1] was over 89.3 µM.
CC(C)N1CCc2nc(NC(=O)c3cc(Cl)cc(NC(=O)OCc4ccccc4)c3)sc2C1 [ASAP-0020812, CC(C)N1CCc2nc(NC(=O)c3cc(Cl)cc(NC(=O)OCc4ccccc4)c3)sc2C1] was tested, and the Ki [1] was over 89.3 µM.
